Non-standard residues stand in square brackets, D forms with d. Residues, ends and D or L forms follow the SMILES beside them. *: point of attachment. Sta = CC(C)C[C@H](N)[C@@H](O)CC(=O)O; Isovaleryl = CC(C)CC(=O)*
Biological target: T1, RmuAP1 (Rhodotorula mucilaginosa, UniProt A0A9P6W3R0)
T1 construct: gene PEP1_2; mature catalytic domain (printed as 300 residues, though residue Ile304 is named), pre- and propeptide removed, C-terminal His6; secreted by Yarrowia lipolytica Po1g
T1 sequence (A0A9P6W3R0 96-425): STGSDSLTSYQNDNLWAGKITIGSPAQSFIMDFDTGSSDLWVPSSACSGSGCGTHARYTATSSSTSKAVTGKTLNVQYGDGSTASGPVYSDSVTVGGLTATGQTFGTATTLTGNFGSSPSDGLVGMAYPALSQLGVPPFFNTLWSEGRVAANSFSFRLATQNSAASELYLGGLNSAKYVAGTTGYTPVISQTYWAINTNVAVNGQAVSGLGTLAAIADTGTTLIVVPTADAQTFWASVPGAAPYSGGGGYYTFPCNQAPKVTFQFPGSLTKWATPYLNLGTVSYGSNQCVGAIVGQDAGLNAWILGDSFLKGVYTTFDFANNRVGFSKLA
Experiment: X-ray crystal structure of the complex, […] Å
Assay type: binding
Settings: crystallised at pH 6.5, 2 M NaCl, 20 °C; active-site cleft, subsites S4 to S2'

## CC(C)CC(=O)N[C@H](C(=O)N[C@H](C(=O)N[C@@H](CC(C)C)[C@@H](O)CC(=O)N[C@@H](C)C(=O)N[C@@H](CC(C)C)[C@@H](O)CC(=O)O)C(C)C)C(C)C [pepstatin A] (Isovaleryl-VV[Sta]A[Sta]-OH)
  X-ray crystal structure of the complex, 1.78 Å: The crystal structure of the RmuAP1 complexed with pepstatin A was determined
